Measured values from publication PMC7037283, “Introduction of Mercaptoethyl at Sorafenib Pyridine-2-Amide Motif as a Potentially Effective Chain to Further get Sorafenib-PEG-DGL” (Molecules, 2020).

How the values were obtained:
[1] = tested on: MCF-7; assay: MTT anti-proliferative assay, MCF-7; format: cell-based; conditions: Homo sapiens, MCF7, 48 h treatment
Experimental: (§1) The in vitro anti-proliferation of the chemical compounds was measured by the MTT reagent. Briefly, 5 × 10^3 cells in 100 μL of medium per well were plated in 96-well plates. After being incubated for 24 h at 37 °C, the cells were treated with different concentration of tested compound or DMSO (as negative control) for 48 h. Then the medium with compound or DMSO was replaced with 200 μL of fresh medium containing 10% MTT (5 mg/mL in PBS) in each well and incubated at 37 °C for 4 h. Last, the MTT-containing medium was discarded and 150 μL of DMSO per well was added to dissolve the formazan crystals newly formed. Absorbance of each well was determined by a microplate reader (Synergy H4, Bio-Tek) at a 570 nm wavelength. The inhibition rates of proliferation were calculated with the following equation:Inhibition ratio (%) = (ODDMSO−ODcompd)/(ODDMSO−ODblank) × 100(1)
(§2) The concentration of the compounds that inhibited cell growth by 50% (IC50) was calculated using GraphPad Prism, version 6.0.

[2] = tested on: Hela (human cervical carcinoma); assay: MTT anti-proliferative assay, Hela; format: cell-based; conditions: 48 h treatment
Experimental: as §1, §2

[3] = tested on: A549; assay: MTT anti-proliferative assay, A549; format: cell-based; conditions: Homo sapiens, 48 h treatment
Experimental: as §1, §2

[4] = tested on: Huh7; assay: MTT anti-proliferative assay, Huh7; format: cell-based; conditions: Homo sapiens, Huh-7, 48 h treatment
Experimental: as §1, §2

[5] = tested on: 293T; assay: MTT anti-proliferative assay, nontumorigenesis cells 293T; format: cell-based; conditions: Homo sapiens, HEK-293T, 48 h treatment
Experimental: as §1, §2

[6] = tested on: HUVEC (Human Umbilical Vein Endothelial Cells); assay: MTT anti-proliferative assay, nontumorigenesis cells HUVEC; format: cell-based; conditions: 48 h treatment
Experimental: as §1, §2

[7] = tested on: mouse melanoma cell line B16F10; assay: MTT anti-proliferative assay, B16F10; format: cell-based; conditions: B16-F10, 48 h treatment
Experimental: as §1, §2

[8] = tested on: MDA-MB-231 (triple negative breast cancer); assay: MTT anti-proliferative assay, MDA-MB-231; format: cell-based; conditions: Homo sapiens, 48 h treatment
Experimental: as §1, §2

[9] = tested on: HepG2; assay: MTT anti-proliferative assay, HepG2; format: cell-based; conditions: Homo sapiens, 48 h treatment
Experimental: as §1, §2

Row | Structure (SMILES) | IC50 [1] [µM] | IC50 [2] [µM] | IC50 [3] [µM] | IC50 [4] [µM] | IC50 [5] [µM] | IC50 [6] [µM] | melting point [°C] | IC50 [7] [µM] | IC50 [8] [µM] | IC50 [9] [µM]
1 | O=C(Nc1ccc(Oc2ccnc(C(=O)NCCCO)c2)cc1)Nc1ccc(Cl)c(C(F)(F)F)c1 [Compound 10c, N-(3-hydroxypropyl)-4-(4-(3-(4-chloro-3-(trifluoromethyl)phenyl)ureido)phenoxy)picolinamide] | 268 | 233 | > 500 | 88.4 | 454 | 329 | 103 to 105 | 449 | 330 | 90.1
2 | O=C(Nc1ccc(Oc2ccnc(C(=O)NCCS)c2)cc1)Nc1ccc(Cl)c(C(F)(F)F)c1 [Compound 10b, N-(2-mercaptoethyl)-4-(4-(3-(4-chloro-3-(trifluoromethyl)phenyl)ureido)phenoxy) picolinamide] | 159 | 63.7 | 447 | 58.8 | 135 | 197 |  | > 500 | 295 | 282
3 | CC(CO)NNC(=O)c1cc(Oc2ccc(NC(=O)Nc3ccc(Cl)c(C(F)(F)F)c3)cc2)ccn1 (stereo not shown) [Compound 15a, 1-(4-Chloro-3-(trifluoromethyl)phenyl)-3-(4-((2-(2-(1-hydroxypropan-2-yl)hydrazine-1-carbonyl)pyridin-4-yl)oxy)phenyl)urea] | > 500 | > 500 | 46.2 | > 500 | 1580 | 320 | 139 to 141 | > 500 | > 500 | 80.1
4 | CNC(=O)c1cc(Oc2ccc(NC(=O)Nc3ccc(Cl)c(C(F)(F)F)c3)cc2)ccn1 [Sorafenib] | 37.2 | 49.5 | 17.4 | 19.5 | 16.1 | 35.5 |  | 17.3 | 12.3 | 24.1
5 | CC(CCO)NNC(=O)c1cc(Oc2ccc(NC(=O)Nc3ccc(Cl)c(C(F)(F)F)c3)cc2)ccn1 (stereo not shown) [Compound 15b, 1-(4-Chloro-3-(trifluoromethyl)phenyl)-3-(4-((2-(2-(4-hydroxybutan-2-yl)hydrazine-1-carbonyl)pyridin-4-yl)oxy)phenyl)urea] | > 500 | > 500 | > 500 | > 500 | 559 | 1250 | 89 to 92 | > 500 | > 500 | > 500
6 | O=C(Nc1ccc(Oc2ccnc(C(=O)NCCO)c2)cc1)Nc1ccc(Cl)c(C(F)(F)F)c1 [Compound 10a, N-(2-hydroxyethyl)-4-(4-(3-(4-chloro-3-(trifluoromethyl)phenyl)ureido)phenoxy)picolinamide] | 471 | > 500 | 287 | 319 | 643 | 583 | 193 to 195 | > 500 | > 500 | 70.7
